In US7166598B2, “Piperazine derivatives” (Astellas Pharma Inc., priority 1998, dated 2007):

Row | melting point | Structure (SMILES)
1 | 145 to 148 °C | COC[C@@H]1CN(CCN2CCN(C(=O)c3cc(C(F)(F)F)cc(C(F)(F)F)c3)[C@H](Cc3ccc4ccccc4c3)C2)CCO1.Cl.Cl
2 | 221 to 228 °C | Cl.Cl.Cl.O=C(c1cc([N+](=O)[O-])cc(C(F)(F)F)c1)N1CCN(CCN2CCc3ncccc3C2)C[C@H]1Cc1ccc(Cl)cc1
3 | 199 to 245 °C | CNc1cc(C(=O)N2CCN(CCN3CCc4ncccc4C3)C[C@H]2Cc2ccc(Cl)cc2)cc(C(F)(F)F)c1.Cl.Cl.Cl
4 | 182 to 195 °C | CSc1cc(C(=O)N2CCN(CCN3CCc4ncccc4C3)C[C@H]2Cc2ccc(Cl)cc2)cc(C(F)(F)F)c1.Cl.Cl.Cl
5 | 130.6 to 135.7 °C | Cl.Cl.Cl.O=C(c1cc(Cl)cc(C(F)(F)F)c1)N1CCN(CCN2CCc3ncccc3C2)C[C@H]1Cc1ccc(Cl)cc1
6 | 240 to 241 °C | Cl.Cl.Cl.O=C(c1cc(C(F)(F)F)cc(C(F)(F)F)c1)N1CCN(CCN2CCc3ncccc3C2)C[C@H]1Cc1ccc(F)c(O)c1
7 | 195 to 200 °C | COc1cc(C[C@@H]2CN(CCN3CCc4ncccc4C3)CCN2C(=O)c2cc(C(F)(F)F)cc(C(F)(F)F)c2)ccc1C(F)(F)F.Cl.Cl.Cl
8 | 172 to 203 °C (dec.) | Cl.Cl.Cl.O=C(c1cc(C(F)(F)F)cc(C(F)(F)F)c1)N1CCN(CCN2CCc3ncccc3C2)C[C@H]1Cc1ccc(Cl)cc1
9 | 155.5 to 170.1 °C | Cl.Cl.Cl.O=C(c1cc(C(F)(F)F)cc(C(F)(F)F)c1)N1CCN(CCN2CCc3ncccc3C2)C[C@H]1Cc1ccc(F)cc1
10 | 189 to 194 °C | Cl.Cl.Cl.O=C(c1cc(C(F)(F)F)cc(C(F)(F)F)c1)N1CCN(CCN2CCc3ncccc3C2)C[C@H]1Cc1ccc2ccccc2c1
11 | 134 to 140 °C | COC[C@@H]1CN(CCN2CCN(C(=O)c3cc(OC)cc(C(F)(F)F)c3)[C@H](Cc3ccc4ccccc4c3)C2)CCO1.Cl.Cl

Continued, compound first:

Row | Structure (SMILES) | melting point
12 | Cl.Cl.O=C(c1cc(C(F)(F)F)cc(C(F)(F)F)c1)N1CCN(Cc2cccnc2)C[C@H]1Cc1ccc(Cl)cc1 | 220 to 228 °C (dec.)
13 | COc1cc(C(=O)N2CCN(CCCc3cccnc3)C[C@H]2Cc2ccc(Cl)c(O)c2)cc(C(F)(F)F)c1.Cl.Cl | 90 to 110 °C
14 | COC[C@@H]1CN(CCN2CCN(C(=O)c3cc(-c4ccncc4)cc(C(F)(F)F)c3)[C@H](Cc3ccc(C)c(O)c3)C2)CCO1.Cl.Cl.Cl | 169 to 173 °C
15 | COC[C@@H]1CN(CCN2CCN(C(=O)c3cc(C(F)(F)F)cc(S(C)(=O)=O)c3)[C@H](Cc3ccc(C)c(O)c3)C2)CCO1.Cl.Cl | 173.5 to 178 °C
16 | Cc1ccc(C[C@@H]2CN(Cc3csc(N(C)C)n3)CCN2C(=O)c2cc(C(F)(F)F)cc(C(F)(F)F)c2)cc1O.Cl.Cl | 162 to 165 °C
17 | CNc1noc(CN2CCN(C(=O)c3cc(C(F)(F)F)cc(C(F)(F)F)c3)[C@H](Cc3ccc(C)c(O)c3)C2)n1.Cl.Cl | 145 to 160 °C
18 | COC[C@@H]1CN(CCN2CCN(C(=O)c3cc(C(F)(F)F)cc(C(F)(F)F)c3)[C@H](Cc3ccc(C)c(NCN4C(=O)CCC4O)c3)C2)CCO1.Cl.Cl.Cl (stereo partly drawn) | 163 to 176 °C
19 | COC[C@@H]1CN(CCN2CCN(C(=O)c3cc(C(F)(F)F)cc(C(F)(F)F)c3)[C@H](Cc3ccc(F)c(OC)c3)C2)[C@@H](C)CO1.Cl.Cl | 140 to 164 °C
20 | CO[C@H]1CN(CCN2CCN(C(=O)c3cc(C(F)(F)F)cc(C(F)(F)F)c3)[C@H](Cc3ccc(Cl)c(O)c3)C2)C[C@@H]1OC.Cl.Cl | 150 to 155 °C
21 | Cl.Cl.O=C(c1cc(C(F)(F)F)cc(C(F)(F)F)c1)N1CCN(Cc2c[nH]c3ncccc23)C[C@H]1Cc1ccc(Cl)c(O)c1 | 197 to 200 °C
22 | COC[C@@H]1CN(CCN2CCN(C(=O)c3cc(C(F)(F)F)cc(C(F)(F)F)c3)[C@H](Cc3ccc(Cl)c(OC)c3)C2)CCO1.Cl.Cl | 145 to 149 °C
23 | Cl.Cl.O=C(c1cc(C(F)(F)F)cc(C(F)(F)F)c1)N1CCN(CCN2CCC(F)(F)CC2)C[C@H]1Cc1ccc(C(F)(F)F)cc1 | 209 to 253 °C
24 | CC1(C)COCCN1CC#CCN1CCN(C(=O)c2cc(C(F)(F)F)cc(C(F)(F)F)c2)[C@H](Cc2ccc(Cl)c(O)c2)C1.Cl.Cl | 181 to 186 °C
